In patent US10801076B2, “Influenza A virus variants” (Vertex Pharmaceuticals Incorporated, priority 2014, dated 2020):

Tested on: A/Wisconsin/67/2005-p1
Assay: microbe, parasite or virus in culture
Assay type: cell-based, influenza A virus (H3N2)
Conditions: Influenza A virus, MDCK, 72 h, read-out: Sensitivity to Compound 1 (EC50)

Q: How did the EC50 turn out when `O=C(O)[C@H]1C2CCC(CC2)[C@@H]1Nc1nc(-c2c[nH]c3ncc(F)cc23)ncc1F` [Compound 1] was run?
A: 2 nM
